BindingDB's records for patent US20250195521 (Revolution Medicines, 2025)

How the values were obtained:
GTPase KRas [G12C] = GTPase KRas [G12C] (Homo sapiens, UniProt P01116, G12C)
GTPase KRas [G13C] = GTPase KRas [G13C] (Homo sapiens, UniProt P01116, G13C)
GTPase KRas [G12V] = GTPase KRas [G12V] (Homo sapiens, UniProt P01116, G12V)
GTPase NRas [G12C] = GTPase NRas [G12C] (Homo sapiens, UniProt P01111, G12C)
GTPase KRas = GTPase KRas (Homo sapiens, UniProt P01116)
GTPase KRas [G12D] = GTPase KRas [G12D] (Homo sapiens, UniProt P01116, G12D)
Chain of GTPase KRas [G12D] (P01116 whole entry G12D): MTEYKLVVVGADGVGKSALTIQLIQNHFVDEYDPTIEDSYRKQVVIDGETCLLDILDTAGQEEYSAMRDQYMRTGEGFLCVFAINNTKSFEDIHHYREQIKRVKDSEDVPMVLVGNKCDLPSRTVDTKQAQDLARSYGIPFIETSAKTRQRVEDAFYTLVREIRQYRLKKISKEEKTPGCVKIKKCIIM

kras g13d = kras g13d (Homo sapiens, UniProt P01116, G13D)
Chain of kras g13d (P01116 whole entry G13D): as the sequence (P01116 whole entry G12D) above, with D12G, G13D counted along it

GTPase NRas [Q61K] = GTPase NRas [Q61K] (Homo sapiens, UniProt P01111, Q61K)
Chain of GTPase NRas [Q61K] (P01111 whole entry Q61K): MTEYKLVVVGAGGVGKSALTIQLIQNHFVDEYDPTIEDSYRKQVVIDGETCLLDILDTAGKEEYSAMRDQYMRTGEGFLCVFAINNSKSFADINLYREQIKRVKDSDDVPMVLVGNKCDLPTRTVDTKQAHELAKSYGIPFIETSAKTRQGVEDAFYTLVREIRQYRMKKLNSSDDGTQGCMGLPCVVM

GTPase KRas [Q61H] = GTPase KRas [Q61H] (Homo sapiens, UniProt P01116, Q61H)
Chain of GTPase KRas [Q61H] (P01116 whole entry Q61H): as the sequence (P01116 whole entry G12D) above, with D12G, Q61H counted along it

GTPase NRas [Q61R] = GTPase NRas [Q61R] (Homo sapiens, UniProt P01111, Q61R)
Chain of GTPase NRas [Q61R] (P01111 whole entry Q61R): as the sequence (P01111 whole entry Q61K) above, with K61R counted along it

GTPase NRas = GTPase NRas (Homo sapiens, UniProt P01111)
Chain of GTPase NRas (P01111 whole entry): as the sequence (P01111 whole entry Q61K) above, with K61Q counted along it

Chain of GTPase KRas [G12V] (P01116 whole entry G12V): as the sequence (P01116 whole entry G12D) above, with D12V counted along it
Chain of GTPase NRas [G12C] (P01111 whole entry G12C): as the sequence (P01111 whole entry Q61K) above, with G12C, K61Q counted along it
Chain of GTPase KRas [G12C] (P01116 whole entry G12C): as the sequence (P01116 whole entry G12D) above, with D12C counted along it
Chain of GTPase KRas [G13C] (P01116 whole entry G13C): as the sequence (P01116 whole entry G12D) above, with D12G, G13C counted along it
Chain of GTPase KRas (P01116 whole entry): as the sequence (P01116 whole entry G12D) above, with D12G counted along it

| SMILES | IC50 (GTPase KRas [G12C]) [nM] | IC50 (GTPase KRas [G13C]) [nM] | IC50 (GTPase KRas [G12V]) | IC50 (GTPase NRas [G12C]) | IC50 (GTPase KRas) | IC50 (GTPase KRas [G12D]) | IC50 (kras g13d) | IC50 (GTPase NRas [Q61K]) | IC50 (GTPase KRas [Q61H]) | IC50 (GTPase NRas [Q61R]) | IC50 (GTPase NRas) |
| --- | --- | --- | --- | --- | --- | --- | --- | --- | --- | --- | --- |
| CCN1C[C@@H](C(=O)N(C)[C@H](C(=O)N[C@H]2Cc3cc(O)cc(c3)-c3ccc4c(c3)c(c(-c3cnccc3COC)n4CC)CC(C)(C)COC(=O)[C@@H]3CCCN(N3)C2=O)C(C)C)CC1=O [US20250195521, Example A16] | 55 | 550 | in the range around 550 nM | in the range around 550 nM | in the range around 550 nM | in the range around 5500 nM | in the range around 550 nM |  |  |  |  |
| CCn1c(-c2cccnc2[C@H](C)OC)c2c3cc(ccc31)-c1csc(n1)C[C@H](NC(=O)[C@H](C(C)C)N(C)C(=O)N1CCC[C@@H](N(C)C)CC1)C(=O)N1CCC[C@H](N1)C(=O)OCC(C)(C)C2 [US20250195521, Example A494] | 55 |  |  | in the range around 55 nM | in the range around 55 nM | in the range around 55 nM |  | in the range around 55 nM | in the range around 55 nM | in the range around 55 nM | in the range around 55 nM |
| CCn1c(-c2cccnc2[C@H](C)OC)c2c3cc(ccc31)-c1cc(O)cc(c1)C[C@H](NC(=O)C1[C@H]3COC[C@@H]13)C(=O)N1CCC[C@H](N1)C(=O)OCC(C)(C)C2 (stereo not given in full) [US20250195521, Example A253] |  |  |  |  |  | > 10000 nM |  |  |  |  |  |
| CCn1c(-c2cccnc2[C@H](C)OC)c2c3cc(ccc31)-c1csc(n1)C[C@H](NC(=O)[C@H](C(C)C)N(C)C(=O)OC)C(=O)N1CCC[C@H](N1)C(=O)OCC(C)(C)C2 [US20250195521, Example A138] | 550 | 550 | in the range around 550 nM | in the range around 550 nM | in the range around 550 nM | in the range around 5500 nM | in the range around 5500 nM | in the range around 550 nM | in the range around 550 nM | in the range around 550 nM | in the range around 550 nM |
| CCn1c(-c2cnccc2COC)c2c3cc(ccc31)-c1cc(O)cc(c1)C[C@H](NC(=O)[C@H](C(C)C)N(C)C(=O)[C@@H]1NC[C@@H]3C[C@@H]31)C(=O)N1CCC[C@H](N1)C(=O)OCC(C)(C)C2 [US20250195521, Example A78] | 550 | 55 | in the range around 550 nM | in the range around 550 nM | in the range around 550 nM | in the range around 550 nM | in the range around 550 nM |  |  |  |  |
| CCn1c(-c2cccnc2[C@H](C)OC)c2c3cc(ccc31)-c1cc(O)cc(c1)C[C@H](NC(=O)[C@H](C(C)C)N(C)C(=O)[C@H]1CCN(C(=O)OC(C)C)C1)C(=O)N1CCC[C@H](N1)C(=O)OCC(C)(C)C2 [US20250195521, Example A117] |  |  | > 10000 nM |  |  |  |  |  |  |  |  |
